Results taken from article PMC3797685, “Enhanced Production, Purification, Characterization and Mechanism of Action of Salivaricin 9 Lantibiotic Produced by Streptococcus salivarius NU10” (PLoS ONE, 2013).
Starred links: 1 amine or outer side, 2 acyl side, 3 side chain; linkers in the order of their positions; H or OH if unused. Positions of bridges follow the written chain, without caps; N, C: chain ends. Non-standard residues stand in square brackets, D forms with d. Residues, ends and D or L forms follow the SMILES beside them. dAbu(3S-yl) = C[C@@H]([C@@H](N[*:1])C(=O)[*:2])[*:3]; Dhb = C/C=C(\N)C(=O)O

Legend:
[1] = system: S. salivarius strain NU10; test: Salivaricin induction assay, strain NU10; format: cell-based, Streptococcus salivarius; details: 0.05 ml test sample (titre 4 AU/ml) added to washed cells in M17YESUCa, 18 h anaerobic; well diffusion assay, induced vs control tube
Source text: (§1) The bacteriocin-inducing activities present in crude extracts of S. salivarius strains NU10, YU10, K12 and in FPLC-purified salivaricin 9 peptide fractions having anti-Micrococcus luteus activity was investigated in this study. The crude extracts of producer cells designated as BLIS-NU10, BLIS-YU10 and BLIS-K12 were isolated by acidic methanol extraction of the producer cells as described previously. These crude BLIS extracts had the potential to contain at least two lantibiotics on the basis of PCR assessment for their content of lantibiotic structural genes. Strains NU10 and YU10 had the structural genes for salivaricin 9 and salivaricin A and strain K12 had salivaricin A and salivaricin B structural genes. […] Colonies from an 18 h culture of each S. salivarius strain NU10, YU10 and K12 grown anaerobically on BACa agar was used to inoculate 10 ml of M17YESUCa broth and incubated again under the same conditions. The cells were then collected by centrifugation at 18000 x g for 5 min and washed three times in saline buffer to reduce the levels of cell surface-associated lantibiotic before suspending in 10 ml of the same buffer. […] Induction of salivaricin 9 or salivaricin A production was recorded as inhibitory zones surrounding samples from the induced tubes but not the control tubes. […]

[2] = system: S. salivarius strain YU10; test: Salivaricin induction assay, strain YU10; format: cell-based, Streptococcus salivarius; details: 0.05 ml test sample (titre 4 AU/ml) added to washed cells in M17YESUCa, 18 h anaerobic; well diffusion assay, induced vs control tube
Source text: as §1

[3] = system: S. salivarius strain K12; test: Salivaricin induction assay, strain K12; format: cell-based, Streptococcus salivarius; details: 0.05 ml test sample (titre 4 AU/ml) added to washed cells in M17YESUCa, 18 h anaerobic; well diffusion assay, induced vs control tube
Source text: as §1

[4] = system: Lactococcus lactis strain ATCC11454; test: Induction assay, nisin-producing strain ATCC11454; format: cell-based; details: 0.05 ml test sample, 18 h, well diffusion assay
[5] = system: Micrococcus luteus ATCC10240; test: Flow cytometry analysis of membrane disruption (propidium iodide); format: cell-based; details: PI 25 µM, 30 minutes at 37°C
Protocol: For membrane integrity assay using the dye propidium iodide (PI), cultures of Micrococcus luteus ATCC10240 were grown over night at 37°C in THB supplemented with 0.5% glucose (THBG) and then diluted with fresh THBG to an OD600 of 0.1. The cells were centrifuged at 4000 x g for 5 minutes at 4°C and washed twice with washing buffer (2 mM HEPES + 2 mM glucose) before re-suspending in the same buffer and adjusting to OD600 0.1. The cells were exposed to salivaricin 9 (12, 20 µg/ml) or nisin (20 µg/ml) (Sigma) and PI (final concentration 25 µM) before incubating for 30 minutes at 37°C. Nuclease-Free Water (Promega, USA) was added instead of antibiotic and served as a negative control. Samples were analyzed using BD FACSCanto^TM II flow cytometer using excitation at 488 nm and with the standard filter setup. Each sample was examined in triplicate and the geometric mean fluorescence intensity (MFI) of gated cell populations was calculated (Figure 9).

[6] = system: Actinomyces naeslundii TG2; test: Minimal inhibitory concentration (NCCLS); format: cell-based; parameters: key: ++++: inhibition zone >12 mm; +++: inhibition zone = 10 mm; ++: inhibition zone < 5 mm; -: No inhibition; details: pure salivaricin 9, NCCLS method
Protocol: (§2) An induced culture of S. salivarius NU10 was centrifuged at 8000 x g to pellet the cells. The cell free supernatant (CFS) was filtered through 0.2 µm sterilized cellulose membrane (Millipore) to ensure that all cell debris was removed. The filtered crude bacteriocin preparation was passed through 100 ml XAD-16 particles (Sigma) packed in a glass column. The column was washed with 400 ml of distilled water followed by 200 ml of 70% methanol before the active fraction was eluted using 200 ml of 95% methanol (adjusted to pH 2) at a flow rate of 15 ml/min. The methanol was removed using a rotary evaporator and the resulting peptide preparation was lyophilized and stored at -20°C. The lyophilized peptide pellets were dissolved in 20 mM sodium phosphate pH 5.8 (binding buffer). Then the sample was injected into a fast protein liquid chromatography (FPLC) system (ÄKTA Purifier™) using HiTrap SP FF 5ml strong cation exchanger column (GE Healthcare) equilibrated with the same buffer at a flow rate of 1 ml/min. Then the column was washed with 10X column volume of the binding buffer before salivaricin 9 was eluted using a linear gradient of 0 to 1M NaCl in 20 mM sodium phosphate buffer at pH 5.8 (Figure 4). All fractions were tested for inhibitory activity using Micrococcus luteus as the indicator. MIC values of pure salivaricin 9 against a set of bacterial indicator strains were determined by following the National Committee for Clinical Laboratory Standards (NCCLS) (Table 3).

[7] = system: Bacillus cereus ATCC14579; test: Minimal inhibitory concentration (NCCLS); format: cell-based; parameters: key: ++++: inhibition zone >12 mm; +++: inhibition zone = 10 mm; ++: inhibition zone < 5 mm; -: No inhibition; details: pure salivaricin 9, NCCLS method
Protocol: as §2

[8] = system: Haemophilus parainfluenza TONEJ11; test: Minimal inhibitory concentration (NCCLS); format: cell-based; parameters: key: ++++: inhibition zone >12 mm; +++: inhibition zone = 10 mm; ++: inhibition zone < 5 mm; -: No inhibition; details: pure salivaricin 9, NCCLS method
Protocol: as §2

[9] = system: Staphylococcus aureus RF122; test: Minimal inhibitory concentration (NCCLS); format: cell-based; parameters: key: ++++: inhibition zone >12 mm; +++: inhibition zone = 10 mm; ++: inhibition zone < 5 mm; -: No inhibition; details: pure salivaricin 9, NCCLS method
Protocol: as §2

[10] = system: Streptococcus mutans GEJ11; test: Minimal inhibitory concentration (NCCLS); format: cell-based; parameters: key: ++++: inhibition zone >12 mm; +++: inhibition zone = 10 mm; ++: inhibition zone < 5 mm; -: No inhibition; details: pure salivaricin 9, NCCLS method
Protocol: as §2

[11] = system: Streptococcus pyogenes ATCC12344; test: Minimal inhibitory concentration (NCCLS); format: cell-based; details: pure salivaricin 9, NCCLS method
Protocol: as §2, with “All fractions were tested for inhibitory activity using Micrococcus luteus as the indicator.” left out

[12] = system: Micrococcus luteus; test: Mode of action, addition to growing culture (OD600); format: cell-based; details: added to different growth phases of Micrococcus luteus culture
Protocol: When added to different growth phases of Micrococcus luteus culture, salivaricin 9 induced cell lysis.
Figure 7 Bactericidal mode of action of salivaricin 9. Salivaricin 9 was added to different phases of bacterial growth. […] The sensitive bacteria Micrococcus luteus lost the ability to grow again after salivaricin 9 was added.

[13] = system: Micrococcus luteus; test: Heat stability (residual inhibitory activity); format: physicochemical; details: for Inhibition zone after heat treatment: indicator Micrococcus luteus, titre 800 AU/ml
Protocol: (§3) Heat stability was studied by exposing pure salivaricin 9 to different temperatures for one hour after which the sample was centrifuged and the supernatant tested for inhibitory activity. The stability of the peptide at different pH values was also evaluated and tested for inhibitory activity. Specific enzymatic effects of denaturation on salivaricin 9 were tested using two wells of 6mm diameter each separated by a distance of 4 mm in CAB plates. One well was filled with 50µl of pure salivaricin 9 while the other was filled with 50µl of the tested enzyme. The plate was incubated at 50°C for 2 hours and then incubated at 37°C overnight before seeding the indicator strain onto the agar surface using a cotton swab. Then the plate was re-incubated at 37°C for 18 hours and the zones of inhibitions that appeared indicated residual activity of salivaricin 9 while absence of inhibition zones indicated the denaturation of the antimicrobial peptide by the applied enzymes namely proteinase K, peptidase, lyticase and catalase. The stability of salivaricin 9 to treatment with the chemicals EDTA, SDS, urea, NaCl and β-mercaptoethanol was examined by adding 1% of these chemicals to the bacteriocin followed by incubation for two hours at RT before the samples were centrifuged and the supernatant tested as mentioned above. If the chemical was a solvent such as β-mercaptoethanol, then the solvent was evaporated before testing for antimicrobial activity (Table 4).

[14] = system: Micrococcus luteus; test: pH stability (residual inhibitory activity); format: physicochemical; details: for Inhibition zone after pH exposure: indicator Micrococcus luteus, titre 800 AU/ml
Protocol: as §3

[15] = system: Proteinase; test: Enzyme stability (residual inhibitory activity); format: physicochemical; details: Proteinase 1 mg.ml^-1; adjacent wells, 50 µl each; 50°C 2 hours then 37°C overnight; indicator Micrococcus luteus; titre 800 AU/ml
Protocol: (§4) Specific enzymatic effects of denaturation on salivaricin 9 were tested using two wells of 6mm diameter each separated by a distance of 4 mm in CAB plates. One well was filled with 50µl of pure salivaricin 9 while the other was filled with 50µl of the tested enzyme. The plate was incubated at 50°C for 2 hours and then incubated at 37°C overnight before seeding the indicator strain onto the agar surface using a cotton swab. Then the plate was re-incubated at 37°C for 18 hours and the zones of inhibitions that appeared indicated residual activity of salivaricin 9 while absence of inhibition zones indicated the denaturation of the antimicrobial peptide by the applied enzymes namely proteinase K, peptidase, lyticase and catalase.

[16] = biological target: Proteinase K (Parengyodontium album, UniProt P06873); test: Enzyme stability (residual inhibitory activity)
Proteinase K, sequence (P06873 106-384): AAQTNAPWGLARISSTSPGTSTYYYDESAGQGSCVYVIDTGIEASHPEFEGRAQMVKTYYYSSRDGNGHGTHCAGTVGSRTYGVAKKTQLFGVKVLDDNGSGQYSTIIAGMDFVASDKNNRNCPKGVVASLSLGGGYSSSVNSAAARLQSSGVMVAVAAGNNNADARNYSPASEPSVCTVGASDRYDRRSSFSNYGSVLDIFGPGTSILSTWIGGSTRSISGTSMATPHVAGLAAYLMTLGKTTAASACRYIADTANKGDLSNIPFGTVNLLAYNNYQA
Protocol: (§5) Heat stability was studied by exposing pure salivaricin 9 to different temperatures for one hour after which the sample was centrifuged and the supernatant tested for inhibitory activity. The stability of the peptide at different pH values was also evaluated and tested for inhibitory activity. Specific enzymatic effects of denaturation on salivaricin 9 were tested using two wells of 6mm diameter each separated by a distance of 4 mm in CAB plates. One well was filled with 50µl of pure salivaricin 9 while the other was filled with 50µl of the tested enzyme. The plate was incubated at 50°C for 2 hours and then incubated at 37°C overnight before seeding the indicator strain onto the agar surface using a cotton swab. Then the plate was re-incubated at 37°C for 18 hours and the zones of inhibitions that appeared indicated residual activity of salivaricin 9 while absence of inhibition zones indicated the denaturation of the antimicrobial peptide by the applied enzymes namely proteinase K, peptidase, lyticase and catalase. The stability of salivaricin 9 to treatment with the chemicals EDTA, SDS, urea, NaCl and β-mercaptoethanol was examined by adding 1% of these chemicals to the bacteriocin followed by incubation for two hours at RT before the samples were centrifuged and the supernatant tested as mentioned above. […]

[17] = system: Lyticase; test: Enzyme stability (residual inhibitory activity)
Protocol: as §4

[18] = system: Catalase; test: Enzyme stability (residual inhibitory activity)
Protocol: as §4

[19] = system: Micrococcus luteus; test: Stability to detergents / chemicals (residual inhibitory activity); format: physicochemical; details: two hours at RT, indicator Micrococcus luteus, titre 800 AU/ml
Protocol: as §3

[20] = system: Peptidase
Protocol: as §5

Nisin: pore forming lantibiotic (Sigma), produced by Lactococcus lactis (ITSISLCTPGCKTGALMGCNMKTATCHCSIHVSK; not fully specified; Lantibiotic nisin-A; UniProt P13068 24-57, looked up) [reference compound]
Preparation induces inhibitor production in NU10 [1]: No
Preparation induces inhibitor production in YU10 [2]: No
Preparation induces inhibitor production in K12 [3]: No
Preparation induces inhibitor production in ATCC11454 [4]: Yes
Propidium iodide uptake, geometric mean fluorescence intensity (MFI) ([5]; 20 µg/ml, triplicate): large increase

C/C=C1\NC(=O)[C@H](Cc2c[nH]c3ccccc23)NC(=O)[C@@H]2NC(=O)[C@H](C)NC(=O)[C@H](CC(C)C)NC(=O)[C@H](CC(N)=O)NC(=O)[C@@H]3CS[C@@H](C)[C@@H](NC(=O)[C@H](CC(C)C)NC(=O)[C@@H](NC(=O)[C@@H](NC(=O)CNC(=O)[C@H](CC(N)=O)NC(=O)CN)C(C)C)C(C)C)C(=O)N[C@@H](CC(C)C)C(=O)N[C@@H](C(=O)N[C@@H](Cc4c[nH]cn4)C(=O)N[C@@H](CCC(=O)O)C(=O)N3)[C@H](C)SC[C@H](NC(=O)[C@H](CCCCN)NC(=O)[C@H](CC(C)C)NC(=O)[C@H](CCCCN)NC(=O)[C@H](CCCCN)NC1=O)C(=O)N[C@H](C(=O)O)CS[C@H]2C [Salivaricin 9] (H-GNGVVL[dAbu(3S-yl)]L[dAbu(3S-yl)]HECNLA[dAbu(3S-yl)]W[Dhb]KKLKCC-OH; thioether 7-12, 9-23, 16-24; N-terminus and C-terminus assumed)
Preparation induces inhibitor production in NU10 [1]: Yes
Preparation induces inhibitor production in YU10 [2]: Yes
Preparation induces inhibitor production in K12 [3]: No
Preparation induces inhibitor production in ATCC11454 [4]: No
MIC of salivaricin 9 [6]: -
MIC of salivaricin 9 [7]: -
MIC of salivaricin 9 [8]: -
MIC of salivaricin 9 [9]: -
MIC of salivaricin 9 [10]: -
MIC of salivaricin 9 [11]: 32 µg/mL
Mode of action (OD600 after addition to culture) [12]: bactericidal and bacteriolytic
Propidium iodide uptake, geometric mean fluorescence intensity (MFI) ([5]; 4 µg/ml (MIC)): did not show significant increase in the MFI
Propidium iodide uptake, geometric mean fluorescence intensity (MFI) ([5]; 12 µg/ml (3-fold MIC), triplicate): significant MFI increments
Propidium iodide uptake, geometric mean fluorescence intensity (MFI) ([5]; 20 µg/ml, triplicate): significant MFI increments
Inhibition zone after heat treatment ([13]; 4, 20, 30, 37, 40, 50, 60, 70, 80 °C for 1 hour): ++++ (inhibition zone >20 mm)
Inhibition zone after heat treatment ([13]; 90, 100 °C for 30 min): +++ (inhibition zone =20 mm)
Biological stability at high temperature (in words) ([13]; 90-100°C for 30 minutes): retained biological stability
Inhibition zone after heat treatment ([13]; 121 °C for 20 min): -
Inhibition zone after pH exposure ([14]; pH 2- 7): ++++ (inhibition zone >20 mm)
Inhibition zone after pH exposure ([14]; pH 8-10): +++ (inhibition zone =20 mm)
Inhibition zone after pH exposure ([14]; pH 11-12): -
Antimicrobial activity after pH exposure (in words) ([14]; pH range of 2 to 10): retained
Inhibition zone after enzyme treatment [15]: -
Inhibition zone after enzyme treatment ([16]; Proteinase K 1 mg.ml^-1, adjacent wells, 50 µl each, 50°C 2 hours then 37°C overnight, indicator Micrococcus luteus, titre 800 AU/ml): -
Antimicrobial activity after enzyme treatment (in words) ([16]; treated with proteinase K): lost all antimicrobial activity
Inhibition zone after enzyme treatment ([17]; Lyticase 1 mg.ml^-1, adjacent wells, 50 µl each, 50°C 2 hours then 37°C overnight, indicator Micrococcus luteus, titre 800 AU/ml): ++++ (inhibition zone >20 mm)
Antimicrobial activity after enzyme treatment (in words) ([17]; treated with lyticase): remained active
Inhibition zone after enzyme treatment ([18]; Catalase 1 mg.ml^-1, adjacent wells, 50 µl each, 50°C 2 hours then 37°C overnight, indicator Micrococcus luteus, titre 800 AU/ml): ++++ (inhibition zone >20 mm)
Antimicrobial activity after enzyme treatment (in words) ([18]; treated with catalase): remained active
Inhibition zone after detergent / chemical treatment ([19]; EDTA 1% (w/v)): ++++ (inhibition zone >20 mm)
Inhibition zone after detergent / chemical treatment ([19]; NaCl 1% (w/v)): ++++ (inhibition zone >20 mm)
Inhibition zone after detergent / chemical treatment ([19]; SDS 1% (w/v)): ++++ (inhibition zone >20 mm)
Inhibition zone after detergent / chemical treatment ([19]; Tritone X100 1% (w/v)): ++ (inhibition zone < 20 mm)
Inhibition zone after detergent / chemical treatment ([19]; Tween 20 1% (w/v)): ++++ (inhibition zone >20 mm)
Inhibition zone after detergent / chemical treatment ([19]; Tween 80 1% (w/v)): ++++ (inhibition zone >20 mm)
Inhibition zone after detergent / chemical treatment ([19]; Urea 1% (w/v)): ++++ (inhibition zone >20 mm)
Inhibition zone after enzyme treatment ([20]; Peptidase 1 mg.ml^-1, adjacent wells, 50 µl each, 50°C 2 hours then 37°C overnight, indicator Micrococcus luteus, titre 800 AU/ml): -
Antimicrobial activity after enzyme treatment (in words) ([20]; treated with peptidase): lost all antimicrobial activity
